Reference: PubChem BioAssay (NCI)
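The concentration for 50% growth inhibition is given as GI50. TGI: concentration producing complete growth inhibition.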

Tests used:
Assay in all cases: growth of human tumour cells (NCI), 384-well format
[1] = system: OVCAR-8 ovarian
[2] = system: 786-0 renal
[3] = system: BT-549 breast
[4] = system: CCRF-CEM leukemia
[5] = system: COLO 205 colon
[6] = system: SK-MEL-5 melanoma
[7] = system: NCI-H23 lung
[8] = system: M14 melanoma
[9] = system: SR leukemia
[10] = system: EKVX NSCLC
[11] = system: NCI-H226 lung
[12] = system: OVCAR-4 ovarian
[13] = system: CAKI-1 renal
[14] = system: MDA-MB-435 melanoma
[15] = system: HT29 colon
[16] = system: HOP-62 NSCLC
[17] = system: SW-620 colon
[18] = system: RPMI-8226 leukemia
[19] = system: HCT-15 colon
[20] = system: HCT-116 colon
[21] = system: SK-OV-3 ovarian
[22] = system: NCI-H460 NSCLC
[23] = system: SF-295 CNS
[24] = system: UO-31 renal
[25] = system: HS 578T breast
[26] = system: HOP-92 NSCLC
[27] = system: SF-268 CNS
[28] = system: SNB-19 CNS

COC1CCC(N2C(=O)CNc3ncc(-c4ccc(C(C)(C)O)nc4)nc32)CC1 (stereo unspecified)
GI50 [1]: 693 nM
TGI [1]: > 100000 nM
GI50 [2]: 911 nM
TGI [2]: > 100000 nM
GI50 [3]: 474 nM
TGI [3]: 7350 nM
GI50 [4]: 261 nM
TGI [4]: 10600 nM
GI50 [5]: 323 nM
TGI [5]: > 100000 nM
GI50 [6]: 200 nM
TGI [6]: 2620 nM
GI50 [7]: 1460 nM
TGI [7]: > 100000 nM
GI50 [8]: 296 nM
TGI [8]: > 100000 nM
GI50 [9]: 16 nM
TGI [9]: 53.3 nM
GI50 [10]: 530 nM
TGI [10]: 31200 nM
GI50 [11]: 326 nM
TGI [11]: 7120 nM
GI50 [12]: 901 nM
TGI [12]: 8950 nM
GI50 [13]: 215 nM
TGI [13]: 3620 nM
GI50 [14]: 515 nM
TGI [14]: 24200 nM
GI50 [15]: 697 nM
TGI [15]: > 100000 nM
GI50 [16]: 672 nM
TGI [16]: > 100000 nM
GI50 [17]: 2580 nM
TGI [17]: > 100000 nM
GI50 [18]: 25 nM
TGI [18]: 110 nM
GI50 [19]: 448 nM
TGI [19]: 44700 nM
GI50 [20]: 690 nM
TGI [20]: 21800 nM
GI50 [21]: 280 nM
TGI [21]: 17100 nM
GI50 [22]: 65.9 nM
TGI [22]: 16300 nM
GI50 [23]: 184 nM
TGI [23]: 1120 nM
GI50 [24]: 358 nM
TGI [24]: > 100000 nM
GI50 [25]: 173 nM
TGI [25]: 523 nM
GI50 [26]: 454 nM
TGI [26]: > 100000 nM
GI50 [27]: 2180 nM
TGI [27]: 20000 nM
GI50 [28]: 5340 nM
TGI [28]: > 100000 nM
